# Assay results from ChEMBL document CHEMBL1201862, “PubChem BioAssay data set” (2004).
#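 These data come from cells grown in 96-well plates and exposed to compound for 48 hours at five concentrations. GI50 = concentration required for 50% inhibition of growth.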 The source made the active and inactive calls. Cut-off read from the data, not from the text of the source: active = GI50 up to about 1.1 µM and inactive = higher.
# Tests used:
# Experiment in all cases: NCI tumour cell line growth inhibition, 48 h
# OVCAR-3 = system: OVCAR-3
# CAKI-1 = system: CAKI-1
# MDA-MB-435 = system: MDA-MB-435
# MDA-MB-231 = system: MDA-MB-231
# PC-3 = system: PC-3
# OVCAR-5 = system: OVCAR-5
# NCI-H522 = system: NCI-H522
# SNB-19 = system: SNB-19
# SF-268 = system: SF-268
# DU-145 = system: DU-145
# 786-0 = system: 786-0
# IGROV-1 = system: IGROV-1
# TK-10 = system: TK-10
# KM12 = system: KM12
# K562 = system: K562
# NCI-H460 = system: NCI-H460
# RPMI-8226 = system: RPMI-8226
# NCI-H226 = system: NCI-H226
Structure (SMILES),GI50 (OVCAR-3),GI50 (CAKI-1),GI50 (MDA-MB-435),GI50 (MDA-MB-231),GI50 (PC-3),GI50 (OVCAR-5),GI50 (NCI-H522),GI50 (SNB-19),GI50 (SF-268),GI50 (DU-145),GI50 (786-0),GI50 (IGROV-1),GI50 (TK-10),GI50 (KM12),GI50 (K562),GI50 (NCI-H460),GI50 (RPMI-8226),GI50 (NCI-H226)
O=C(N/N=C\c1cccc(O)c1)c1ccncc1,> 100 µM (inactive),> 100 µM (inactive),> 100 µM (inactive),> 100 µM (inactive),> 100 µM (inactive),> 100 µM (inactive),> 100 µM (inactive),> 100 µM (inactive),> 100 µM (inactive),> 100 µM (inactive),> 100 µM (inactive),> 100 µM (inactive),> 100 µM (inactive),> 100 µM (inactive),> 100 µM (inactive),> 100 µM (inactive),,
Nc1nc(N)c2c(Cl)c(CNc3ccc(C(=O)NC(CC(=O)O)C(=O)O)cc3)ccc2n1 (stereo unspecified),,< 0.01 µM (active),< 0.01 µM (active),> 100 µM (inactive),9.31 µM (inactive),< 0.01 µM (active),< 0.01 µM (active),< 0.01 µM (active),< 0.01 µM (active),< 0.01 µM (active),< 0.01 µM (active),< 0.01 µM (active),< 0.01 µM (active),< 0.01 µM (active),< 0.01 µM (active),< 0.01 µM (active),< 0.01 µM (active),
CCOC(=O)c1cc2c(ccc3cc(C(=O)OCC)[nH]c32)[nH]1,87.1 µM (inactive),29 µM (inactive),15.3 µM (inactive),12.6 µM (inactive),> 100 µM (inactive),> 100 µM (inactive),67.1 µM (inactive),25.4 µM (inactive),17.1 µM (inactive),35.2 µM (inactive),15.6 µM (inactive),53.7 µM (inactive),50.2 µM (inactive),95.1 µM (inactive),97.1 µM (inactive),43.9 µM (inactive),57.1 µM (inactive),
COc1c(O)cc2c(c1O)C(=O)/C(=C/c1ccc(O)cc1)CO2,27.2 µM (inactive),22.2 µM (inactive),33.6 µM (inactive),40.2 µM (inactive),43 µM (inactive),29 µM (inactive),14.4 µM (inactive),30.8 µM (inactive),29.1 µM (inactive),27.1 µM (inactive),30.8 µM (inactive),24.7 µM (inactive),35.5 µM (inactive),13.6 µM (inactive),28.9 µM (inactive),30.1 µM (inactive),9.33 µM (inactive),
Cc1ccc(C2=Nn3c(nc4sc(-c5ccccc5)cc4c3=O)SC2)cc1,> 100 µM (inactive),> 100 µM (inactive),> 100 µM (inactive),> 100 µM (inactive),> 100 µM (inactive),> 100 µM (inactive),> 100 µM (inactive),,> 100 µM (inactive),> 100 µM (inactive),> 100 µM (inactive),> 100 µM (inactive),> 100 µM (inactive),> 100 µM (inactive),> 100 µM (inactive),> 100 µM (inactive),> 100 µM (inactive),> 100 µM (inactive)
CCOC(=O)c1nc2ccccc2nc1Oc1ccc(OC)cc1,> 100 µM (inactive),,> 100 µM (inactive),> 100 µM (inactive),> 100 µM (inactive),> 100 µM (inactive),29 µM (inactive),> 100 µM (inactive),> 100 µM (inactive),> 100 µM (inactive),> 100 µM (inactive),> 100 µM (inactive),> 100 µM (inactive),> 100 µM (inactive),> 100 µM (inactive),> 100 µM (inactive),> 100 µM (inactive),> 100 µM (inactive)
O=C(NCCCCCCNCc1cccc2ccccc12)Nc1cccc2ccccc12,> 100 µM (inactive),> 100 µM (inactive),> 100 µM (inactive),> 100 µM (inactive),> 100 µM (inactive),63.1 µM (inactive),> 100 µM (inactive),> 100 µM (inactive),> 100 µM (inactive),> 100 µM (inactive),> 100 µM (inactive),> 100 µM (inactive),> 100 µM (inactive),> 100 µM (inactive),> 100 µM (inactive),> 100 µM (inactive),> 100 µM (inactive),
CC1=CC(=O)/C(=C/NC(=S)c2ccncc2)C(=O)O1,> 100 µM (inactive),> 100 µM (inactive),> 100 µM (inactive),> 100 µM (inactive),> 100 µM (inactive),> 100 µM (inactive),> 100 µM (inactive),> 100 µM (inactive),> 100 µM (inactive),> 100 µM (inactive),> 100 µM (inactive),38.7 µM (inactive),> 100 µM (inactive),> 100 µM (inactive),,> 100 µM (inactive),,68.1 µM (inactive)
Cc1cc(S(=O)(=O)[N-]/C(=N/S(=O)(=O)c2ccc(Cl)cc2)[n+]2ccc(N(C)C)cc2)c(S)cc1Cl,56.1 µM (inactive),> 100 µM (inactive),> 100 µM (inactive),> 100 µM (inactive),54 µM (inactive),61.5 µM (inactive),28.7 µM (inactive),,89.9 µM (inactive),> 100 µM (inactive),> 100 µM (inactive),> 100 µM (inactive),49.2 µM (inactive),> 100 µM (inactive),1.92 µM (inactive),48.3 µM (inactive),48 µM (inactive),33.8 µM (inactive)
COc1ccc(CC2COc3cc(OC)cc(OC)c3C2=O)cc1 (stereo unspecified),18.9 µM (inactive),17.5 µM (inactive),3.18 µM (inactive),33.3 µM (inactive),22.5 µM (inactive),24.7 µM (inactive),9.14 µM (inactive),25.2 µM (inactive),32.7 µM (inactive),21.8 µM (inactive),19 µM (inactive),28.7 µM (inactive),21.3 µM (inactive),8.81 µM (inactive),31 µM (inactive),29.6 µM (inactive),15.3 µM (inactive),
COc1cc([N+](=O)[O-])c(S(=O)(=O)O)cc1-n1nc(-c2ccccc2)n[n+]1-c1cc(S(=O)(=O)[O-])c([N+](=O)[O-])cc1OC,> 100 µM (inactive),> 100 µM (inactive),> 100 µM (inactive),> 100 µM (inactive),> 100 µM (inactive),> 100 µM (inactive),> 100 µM (inactive),> 100 µM (inactive),> 100 µM (inactive),> 100 µM (inactive),> 100 µM (inactive),> 100 µM (inactive),,> 100 µM (inactive),> 100 µM (inactive),> 100 µM (inactive),> 100 µM (inactive),> 100 µM (inactive)
CS(=O)(=O)N1CC(CCl)c2ccc(O)cc21 (stereo unspecified),2.95 µM (inactive),2.42 µM (inactive),1.89 µM (inactive),2.2 µM (inactive),2.17 µM (inactive),3.63 µM (inactive),1.47 µM (inactive),,0.155 µM (active),3.46 µM (inactive),3.31 µM (inactive),2.07 µM (inactive),2.32 µM (inactive),2.46 µM (inactive),2.47 µM (inactive),2.9 µM (inactive),2.03 µM (inactive),2.34 µM (inactive)
